From patent publication US20200361871A1 (Enterprise Therapeutics Ltd., priority 2018, published 2020)
Entries after “also recorded” stand apart in the source; their conditions may differ.

How the values were obtained:
[1] = Solubility assessment of Compound 36 Form A in solvents at 50° C.; format: physicochemical; design: key to Solubility (dissolution in solvent): ✓: material dissolved at 50° C.; x: material did not dissolve; ?: partial dissolution
Procedure: Compound 36 (Form 1, approximately 30 mg) was weighed into 2 ml glass vials and was treated with aliquots of solvent. The samples were stirred at 50° C., 400 rpm, for approximately 10 minutes between addition of aliquots of solvent. Solvent was added until a clear solution was formed or a maximum of 60 volumes (1.8 ml) of solvent was reached.
Samples that were solutions (or close to dissolution, sample in DCM) were cooled to 5° C. at 0.1° C./min and were stirred overnight. After cooling, the samples that contained solids were filtered using PTFE frits, dried under suction for approximately 30 minutes and were analysed by XRPD.
Samples that were suspensions in 60 volumes of solvent were matured (shaken in cycles of 4 hours at 50° C./4 hours at RT). After 5 days, samples were filtered using PTFE frits, dried under suction for approximately 30 minutes and were analysed by XRPD.

[2] = Storage of forms of Compound 36 at 40° C./75% RH in open vials, XRPD; format: physicochemical; settings: open vial, 14 days (2 weeks)
Procedure: Form A was stored at 40° C./75% RH, in an open vial. […] Therefore, Form A is stable to exposure to elevated temperature and humidity for up to 2 weeks and no evidence of a hydrated form was observed.
One sample of each of the new forms (Forms B, C, D, E, E+extra peaks, F, G and H) was analysed by ^1H NMR, TGA, DSC and stored at 40° C./75% RH. Results are summarised in Table E with Form A for comparison.

[3] = Competitive suspension equilibration of all known forms of Compound 36 in surfactant buffers; format: physicochemical; settings: 20° C.
Procedure: Equimolar composites of the forms of Compound 36 were stirred in each surfactant buffer configuration as follows.
Equimolar admixtures of each form and the amorphous phase were prepared and suspended in the appropriate surfactant buffer configuration at the dose relevant concentration of 5 mg/ml and stirred at 20° C. for 13 days. Stirring was suspended, the slurries were centrifuged, supernatant decanted and the pellets were dried under reduced pressure and analysed.
All known forms of Compound 36 were combined in approximately equimolar proportions. Each composite was suspended in Tween/Span and Tween 80 buffers (5 mg/ml concentration) in two vessels and stirred at 20° C. […] Therefore, order of succession in formulation vehicles under ambient storage supported Form A as the preferred form.

[4] = Solubility assessment of Compound 36 Form A in solvents at 50° C.; format: physicochemical; settings: acetone and ethanol
[5] = target: human TMEM16A (TMEM16Aabc variant) (Homo sapiens, UniProt Q5XXA6, DEL476-501, form not given); test: Automated whole-cell patch clamp (Qpatch) TMEM16A potentiator assay in FRT cells stably expressing human TMEM16A; format: cell-based
Method in brief: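 FRT cells stably expressing human TMEM16Aabc were recorded by automated whole-cell patch clamp, with intracellular Ca2+ buffered for ~EC20 activation, holding −70 mV and step to +70 mV at 0.05 Hz. Compound was applied cumulatively, 5 min per concentration. Peak current increase as % of baseline was fitted to give EC50 and maximum efficacy.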

Sequence of human TMEM16A (TMEM16Aabc variant) (Q5XXA6 with tags, fused parts or gaps DEL476-501): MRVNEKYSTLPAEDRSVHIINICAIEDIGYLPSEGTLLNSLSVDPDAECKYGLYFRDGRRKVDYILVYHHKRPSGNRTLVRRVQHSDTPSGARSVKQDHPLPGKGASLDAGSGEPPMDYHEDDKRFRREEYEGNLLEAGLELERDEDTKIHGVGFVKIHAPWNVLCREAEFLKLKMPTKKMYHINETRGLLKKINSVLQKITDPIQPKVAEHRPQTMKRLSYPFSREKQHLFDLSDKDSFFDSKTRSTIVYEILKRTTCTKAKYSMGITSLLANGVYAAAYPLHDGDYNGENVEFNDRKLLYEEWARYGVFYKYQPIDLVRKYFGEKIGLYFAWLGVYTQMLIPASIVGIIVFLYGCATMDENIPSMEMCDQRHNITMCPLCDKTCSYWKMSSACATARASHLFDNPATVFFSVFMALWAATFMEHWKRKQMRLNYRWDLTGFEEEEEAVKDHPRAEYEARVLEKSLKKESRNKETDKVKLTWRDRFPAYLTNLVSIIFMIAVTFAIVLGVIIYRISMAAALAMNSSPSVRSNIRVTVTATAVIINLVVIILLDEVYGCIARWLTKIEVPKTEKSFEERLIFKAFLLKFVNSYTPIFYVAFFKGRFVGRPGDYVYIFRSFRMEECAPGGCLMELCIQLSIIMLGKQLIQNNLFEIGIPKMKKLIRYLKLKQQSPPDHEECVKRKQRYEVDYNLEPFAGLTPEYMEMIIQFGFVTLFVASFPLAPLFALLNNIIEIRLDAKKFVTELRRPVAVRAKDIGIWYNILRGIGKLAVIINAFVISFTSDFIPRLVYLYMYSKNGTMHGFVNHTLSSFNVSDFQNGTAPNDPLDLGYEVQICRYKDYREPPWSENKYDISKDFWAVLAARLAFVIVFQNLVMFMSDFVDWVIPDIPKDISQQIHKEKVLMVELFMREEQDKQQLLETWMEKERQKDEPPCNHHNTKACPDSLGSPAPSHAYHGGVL

SMILES: C#CC(C)(C)NC(=O)c1cc(NC(=O)Cc2cc(Cl)ccc2O)ccn1 [Compound 36 Form A, 4-[[2-(5-Chloro-2-hydroxy-phenyl)acetyl]amino]-N-(1,1-dimethylprop-2-ynyl)pyridine-2-carboxamide]
- Solubility (dissolution in solvent) ([1]; 2-Propanol, 5 vol, 50° C.): x
- Solubility (dissolution in solvent) ([1]; 2-Propanol, 10 vol, 50° C.): x
- Solubility (dissolution in solvent) ([1]; 2-Propanol, 30 vol, 50° C.): ✓
- Solubility (dissolution in solvent) ([1]; 5% aqueous ACN, 5 vol, 50° C.): x
- Solubility (dissolution in solvent) ([1]; 5% aqueous ACN, 20 vol, 50° C.): ✓
- Solubility (dissolution in solvent) ([1]; 20% aqueous ACN, 5 vol, 50° C.): x
- Solubility (dissolution in solvent) ([1]; 20% aqueous ACN, 10 vol, 50° C.): ✓
- Solubility (dissolution in solvent) ([1]; Acetone, 5 vol, 50° C.): ✓
- Solubility (dissolution in solvent) ([1]; Acetone, 10 vol, 50° C.): ✓
- Solubility (dissolution in solvent) ([1]; Acetonitrile, 5 vol, 50° C.): x
- Solubility (dissolution in solvent) ([1]; Acetonitrile, 10 vol, 50° C.): x
- Solubility (dissolution in solvent) ([1]; Acetonitrile, 30 vol, 50° C.): ✓
- Solubility (dissolution in solvent) ([1]; Dichloromethane, 5 vol, 50° C.): x
- Solubility (dissolution in solvent) ([1]; Dichloromethane, 10 vol, 50° C.): x
- Solubility (dissolution in solvent) ([1]; Dichloromethane, 20 vol, 50° C.): x
- Solubility (dissolution in solvent) ([1]; Dichloromethane, 30 vol, 50° C.): x
- Solubility (dissolution in solvent) ([1]; Ethanol, 5 vol, 50° C.): x
- Solubility (dissolution in solvent) ([1]; Ethanol, 10 vol, 50° C.): ✓
- Solubility (dissolution in solvent) ([1]; Ethyl Acetate, 5 vol, 50° C.): x
- Solubility (dissolution in solvent) ([1]; Ethyl Acetate, 10 vol, 50° C.): x
- Solubility (dissolution in solvent) ([1]; Ethyl Acetate, 20 vol, 50° C.): ✓
- Solubility (dissolution in solvent) ([1]; Tetrahydrofuran, 5 vol, 50° C.): x
- Solubility (dissolution in solvent) ([1]; Tetrahydrofuran, 10 vol, 50° C.): x
- Solubility (dissolution in solvent) ([1]; Tetrahydrofuran, 20 vol, 50° C.): ✓
- Solubility (dissolution in solvent) ([1]; Water, 5 vol, 50° C.): x
- Solubility (dissolution in solvent) ([1]; Water, 10 vol, 50° C.): x
- Solubility (dissolution in solvent) ([1]; Water, 20 vol, 50° C.): x
- Solubility (dissolution in solvent) ([1]; Water, 30 vol, 50° C.): x
- Solubility (dissolution in solvent) ([1]; Water, 40 vol, 50° C.): x
- Solubility (dissolution in solvent) ([1]; Water, 50 vol, 50° C.): x
- Solubility (dissolution in solvent) ([1]; Water, 60 vol, 50° C.): x
- Solubility (dissolution in solvent) ([1]; n-Heptane, 5 vol, 50° C.): x
- Solubility (dissolution in solvent) ([1]; n-Heptane, 10 vol, 50° C.): x
- Solubility (dissolution in solvent) ([1]; n-Heptane, 20 vol, 50° C.): x
- Solubility (dissolution in solvent) ([1]; n-Heptane, 30 vol, 50° C.): x
- Solubility (dissolution in solvent) ([1]; n-Heptane, 40 vol, 50° C.): x
- Solubility (dissolution in solvent) ([1]; n-Heptane, 50 vol, 50° C.): x
- Solubility (dissolution in solvent) ([1]; n-Heptane, 60 vol, 50° C.): x
- Solubility (dissolution in solvent) ([1]; tert-Butylmethyl Ether, 5 vol, 50° C.): x
- Solubility (dissolution in solvent) ([1]; tert-Butylmethyl Ether, 10 vol, 50° C.): x
- Solubility (dissolution in solvent) ([1]; tert-Butylmethyl Ether, 20 vol, 50° C.): x
- Solubility (dissolution in solvent) ([1]; tert-Butylmethyl Ether, 30 vol, 50° C.): x
- Solubility (dissolution in solvent) ([1]; tert-Butylmethyl Ether, 40 vol, 50° C.): x
- Solubility (dissolution in solvent) ([1]; tert-Butylmethyl Ether, 50 vol, 50° C.): x
- Solubility (dissolution in solvent) ([1]; tert-Butylmethyl Ether, 60 vol, 50° C.): x
- Storage at 40° C./75% RH (change of form by XRPD) [2]: no change in form was detected; also recorded: No change (14 days)
- Form produced by competitive suspension equilibration (thermodynamic stability) ([3]; TWEEN 80 (0.5 mg/ml) or TWEEN 20 (0.5 mg/ml)/SPAN 20 (0.05 mg/ml), 7 to 10 days): most thermodynamically stable form

SMILES: C#CC(C)(C)NC(=O)c1cc(NC(=O)Cc2cc(Cl)ccc2O)ccn1 [Example 36, 4-[[2-(5-Chloro-2-hydroxy-phenyl)acetyl]amino]-N-(1,1-dimethylprop-2-ynyl)pyridine-2-carboxamide]
- Solubility (relative, in words) [4]: most soluble
- Solubility (in words) ([1]; acetonitrile/water mixtures): freely soluble
- Solubility (dissolution in anti-solvents) ([1]; n-heptane, water and TBME, up to 60 volumes, 50° C.): no observable dissolution
- % Potentiation @ 3.33 μM Avg ([5]; 3.33 μM solution of test compound, percentage increase of baseline TMEM16A current): 199%
- EC50 ([5]; calculated EC50, Qpatch TMEM16A current at +70 mV): 20 nM
- Form produced by competitive suspension equilibration (XRPD) ([3]; Tween/Span and Tween 80 buffers, 5 mg/ml, 13 days): consistent with Form A
